# Results from patent US7674954B2, “DNA constructs that contain Helianthus annuus Hahb-10 gene coding sequence, method for generating plants with a shortened life cycle and a high tolerance to herbicidal compounds and transgenic plants with that sequence” (Universidad Nacional del Litoral, priority 2006, dated 2010).
# Legend:
# [1] = tested on: 35S-Hahb10 transgenic Arabidopsis plants; experiment: Stem elongation after gibberellin spraying, Hahb-10 overexpressing plants; type: in vivo, Arabidopsis thaliana
# Description: (§1) Stem height was measured with a ruler in non transformed (1) or 35S-Hahb10 transgenic plants (2: line A; 3: line B and 4: line C). Grey bars represent three transgenic lines and white bars represent wild-type plants. Right series in each panel represent GA3 treated plants while left series represent their non-treated counterparts. […] Arabidopsis transgenic or wild-type plants were grown under normal illumination conditions for 15 days. After this, the plants were sprayed with 200 μM GA3. This treatment was repeated at day 25. Stem length was measured in 20- and 30-day-old plants with a ruler. […] In order to investigate the response of Hahb-10 overexpressing lines to this hormone, we treated plants with 200 μM gibberellins as described above.
# [2] = tested on: Hahb-10 transcript levels; experiment: Northern blot of Hahb-10 transcript levels in treated sunflower seedlings; type: in vivo, Helianthus annuus
# Description: 2A: Total RNA samples (20 μg each) extracted from 4-day-old seedlings subjected to different treatments as described later were hybridized with a ^32P-labeled Hahb-10 cDNA specific probe (A, upper panel). The same filter was hybridized with an rRNA probe as a control for RNA loading and transfer. Spots obtained with the specific probe were quantified in reference to their rRNA using Image Pro Plus software. […] Quantitation of the signals has been done taking as standard value the signal obtained in these seedlings because the signal obtained in control seedlings was almost not detectable by the software used for this purpose. 2B: Total RNA samples (20 μg each) extracted from 7-day-old seedlings grown in normal illumination conditions (lane 1), in the dark (lane 2), or under continuous illumination at 40 cm from the light source applied to 4-day-old seedlings germinated in the dark during 3 additional days (lane 3) were analyzed by electrophoresis, transferred onto nylon membranes and hybridized with a ^32P-labelled Hahb-10 cDNA specific probe (upper panel). The same filter was hybridized with an rRNA probe as a control for RNA loading and transfer (lower panel). […]
# [3] = tested on: non-transformed (wild-type) Arabidopsis plants; experiment: Stem elongation after gibberellin spraying, non-transformed plants; type: in vivo, Arabidopsis thaliana
# Description: as §1
# [4] = tested on: transgenic Arabidopsis thaliana expressing the Hahb-10 gene; experiment: Herbicide (methyl viologen) spraying, Hahb-10 transgenic plants; type: in vivo; conditions: 10 to 30 μM methyl viologen sprayed on 21-day-old plants; three independent transgenic lines; dose-dependent
# Description: (§2) Treatments with the herbicide Paraquat were carried out by growing transgenic and wild-type 21-day-old plants under normal conditions and spraying them with methyl viologen at concentrations of 10, 20 or 30 μM.
# (§3) In order to study the effect of Hahb-10 overexpression on the tolerance to herbicides, transgenic and wild-type 21-day-old Arabidopsis thaliana were grown under normal conditions and were sprayed with methyl viologen at concentrations of 10, 20 or 30 μM. Once sprayed, they were left at the same illumination and temperature conditions for 24 hours and, at that time, leaf impairment was easily observable. One week after MV treatment, chlorophyll content in the leaves from both genotypes was analyzed. Plants were allowed to recover for three days and the percentage of survivors, either wild-type or transgenic ones expressing the Hahb-10 gene, was recorded.
# [5] = tested on: wild-type Arabidopsis thaliana; experiment: Herbicide (methyl viologen) spraying, non-transformed plants; type: in vivo; conditions: 10 to 30 μM methyl viologen sprayed on 21-day-old plants, correlating to concentration
# Description: as §2, §3
compound,measurement,setting,value
"C=C1C[C@]23C[C@@]1(O)CC[C@H]2[C@@]12C=C[C@H](O)[C@@](C)(C(=O)O1)[C@H]2[C@@H]3C(=O)O [gibberellins, gibberellic acid]",increase in stem length with respect to non-treated controls,"[1]; 200 μM gibberellins sprayed, 5 days after the first treatment (20-day-old plants)",1.6 fold
same,stem elongation induction on average,"[1]; 200 μM gibberellins, after the second treatment (30-day-old plants)",1.2 fold
same,Hahb-10 transcript levels raised with respect to the heat-shock treatment,"[2]; 100 μM gibberellic acids, Northern blot normalised to rRNA",5 fold
same,increase in stem elongation with respect to non-treated controls,"[3]; 200 μM gibberellins sprayed, 5 days after the first treatment (20-day-old plants), non-transformed plants",3.7 fold
same,stem elongation induction on average,"[3]; 200 μM gibberellins, after the second treatment (30-day-old plants), wild-type plants",1.5 fold
C[n+]1ccc(-c2cc[n+](C)cc2)cc1 [methyl viologen],effect of herbicide treatment on plants,[4],resistant
same,effect of herbicide treatment on plants,[5],dramatically affected
OC[C@H]1O[C@@](CO)(O[C@H]2O[C@H](CO)[C@@H](O)[C@H](O)[C@H]2O)[C@@H](O)[C@@H]1O [sucrose],effect on Hahb-10 mRNA levels,"[2]; sucrose 10% w/v, similar to slight enhancement by heat/cold shock, water stress, hypoxia",produced a similar effect
